In the supplement of paper PMC10307832:

Assays:
Experiment in all cases: relative viability (nuclei count vs DMSO), 5 days (fraction); higher = more cells survive
Cediranib + Trametinib = compound: COc1cc2c(Oc3ccc4[nH]c(C)cc4c3F)ncnc2cc1OCCCN1CCCC1 [Cediranib] + CC(=O)Nc1cccc(-n2c(=O)n(C3CC3)c(=O)c3c(Nc4ccc(I)cc4F)n(C)c(=O)c(C)c32)c1 [Trametinib] (partner 0.02 µM)
In short: (§1)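 Five library-drug doses in √10 steps were combined with a fixed anchor-drug dose, or a single drug was given alone, by pin tool to lung cancer cell lines in 1536-well plates the day after seeding. Nuclei were stained and counted after 5 days. Relative viability is the nuclei count in treated wells over that in vehicle wells, taken as the median of duplicate plates.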

Decitabine + Bortezomib = compound: Nc1ncn([C@H]2C[C@H](O)[C@@H](CO)O2)c(=O)n1 [Decitabine] + CC(C)C[C@H](NC(=O)[C@H](Cc1ccccc1)NC(=O)c1cnccn1)B(O)O [Bortezomib] (partner 0.002 µM)
In short: as §1

Decitabine + Tozasertib = compound: Nc1ncn([C@H]2C[C@H](O)[C@@H](CO)O2)c(=O)n1 [Decitabine] + Cc1cc(Nc2cc(N3CCN(C)CC3)nc(Sc3ccc(NC(=O)C4CC4)cc3)n2)n[nH]1 [Tozasertib] (partner 0.1 µM)
In short: as §1

[1] = compound: O=C(C[C@H]1NCCC[C@@H]1O)Cn1cnc2cc(Br)c(Cl)cc2c1=O (racemic) [Halofuginone] + CC1(C)CCC(c2ccc(Cl)cc2)=C(CN2CCN(c3ccc(C(=O)NS(=O)(=O)c4ccc(N[C@H](CCN5CCOCC5)CSc5ccccc5)c(S(=O)(=O)C(F)(F)F)c4)cc3)CC2)C1 [Navitoclax] (partner 0.5 µM)
In short: as §1

Cell Line	relative viability (Cediranib + Trametinib; first compound 0.04 µM)	relative viability (Cediranib + Trametinib; first compound 0.1265 µM)	relative viability (Cediranib + Trametinib; first compound 0.4 µM)	relative viability (Cediranib + Trametinib; first compound 1.265 µM)	relative viability (Cediranib + Trametinib; first compound 4 µM)	relative viability (Decitabine + Bortezomib; first compound 0.04 µM)	relative viability (Decitabine + Bortezomib; first compound 0.1265 µM)	relative viability (Decitabine + Bortezomib; first compound 0.4 µM)	relative viability (Decitabine + Bortezomib; first compound 1.265 µM)	relative viability (Decitabine + Bortezomib; first compound 4 µM)	relative viability (Decitabine + Tozasertib; first compound 0.04 µM)	relative viability (Decitabine + Tozasertib; first compound 0.1265 µM)	relative viability (Decitabine + Tozasertib; first compound 0.4 µM)	relative viability (Decitabine + Tozasertib; first compound 1.265 µM)	relative viability (Decitabine + Tozasertib; first compound 4 µM)	relative viability ([1]; first compound 0.001 µM)	relative viability ([1]; first compound 0.003162 µM)	relative viability ([1]; first compound 0.01 µM)	relative viability ([1]; first compound 0.03162 µM)	relative viability ([1]; first compound 0.1 µM)
NCI-H460	0.111	0.156	0.138	0.153	0.214	0.909	0.991	0.811	0.35	0.272	0.325	0.24	0.27	0.0551	0.0621	1.2	1.3	1.12	0.232	0.0111
EMC-BAC-2	0.823	–	0.842	0.82	0.923	1.04	1.13	0.754	0.747	0.632	0.274	0.266	0.27	0.251	0.271	1.14	1.29	1.14	1.13	0.87
NCI-H23	0.483	0.426	0.419	0.325	0.424	0.571	0.493	0.307	0.216	0.233	0.256	0.199	0.152	0.195	0.172	0.893	0.966	0.795	0.798	0.377
A-427	0.747	–	0.717	0.684	0.737	0.769	0.571	0.247	0.271	0.242	0.195	0.136	0.118	0.123	0.135	1.08	0.984	0.903	0.898	0.946
NCI-H322M	0.475	0.489	0.526	0.528	0.568	1.18	1.06	0.716	0.699	0.479	0.415	0.484	0.426	0.35	0.376	1.2	1.26	1.26	1.24	1.19
COR-L23	0.608	0.578	0.573	0.425	0.532	0.695	0.703	0.42	0.316	0.234	0.134	0.158	0.158	0.123	0.128	1.03	1.1	1.03	0.976	0.126
NCI-H2085	0.571	0.523	0.475	0.49	0.526	0.751	0.801	0.58	0.451	0.366	0.666	0.669	0.54	0.454	0.437	1.1	1.25	1.03	1.02	0.74
NCI-H2087	0.221	0.29	0.179	0.183	0.288	0.603	0.55	0.51	0.33	0.36	0.229	0.194	0.176	0.129	0.153	1.01	1.09	0.94	0.799	0.682
